Data reported in patent US10882860B2, “Treatment of osteoarthritis” (Samumed, LLC, priority 2015, dated 2021).
Marks after values point to notes of the source that are not given here.

Tests used:
[1] = Competitive slurry experiments between polymorph forms (thermodynamic stability); format: physicochemical; details: competitive slurry of mixed forms
Description: In order to find out the thermodynamic stability between the different forms, several competitive slurry experiments were carried out. Form 1, Form 2, Form 2*, Form 3, Form 4, Form 4*, Form 4**, Form 5, Form 7, Form 8, Form 9, Form 10, Form 11, Form 11*, and Form 13 (10 mg for each) was mixed and slurried in 2 mL of solvent at both RT and 50° C. The solids were slurried for 3-5 days and then analyzed by XRD.
In order to find out the thermodynamic stability between Form 13 and Form 9, several competitive slurry experiments were carried out. 15 mg of Form 1, Form 9 and Form 13 solid were mixed in 1 mL of toluene, IPAc, and n-butyl acetate, and slurried for 3 days at RT and 50° C.
The residual solid was analyzed by XRD.

[2] = Phase 1 clinical study: pharmacokinetics; format: in vivo; details: human; cohorts 1, 2, and 3 (0.03, 0.07, 0.23 mg); 0, 4, 24 hours, Weeks 4 and 12; BQL
From the text: The study was a first-in-human, multicenter, 24-week, placebo-controlled, single-dose, dose-escalation safety study of a Wnt pathway inhibitor in subjects suffering from moderate to severe symptomatic knee OA. The sample size was 20 subjects (randomized 4:1, 16 active: 4 placebo) per dosing cohort. Inclusion criteria included: Age, 50-75 years; Western Ontario and McMaster Universities Arthritis Index (WOMAC) Total score, 36-72 (out of 96); Kellgren-Lawrence grade, 2 or 3; and a willingness to omit pain medication for 24 hours prior to pain assessments. Exclusion criteria included: BMI>40; and treatment with IA steroids within 2 months or HA derivatives within 6 months prior to injection. A full list of the inclusion and exclusion criteria for this study can be found on clinicaltrials.gov (NCT02095548).
The dosing sequence included suspension compositions of either 0.03 mg, 0.07 mg, or 0.23 mg of the compound of Formula (I) (Form 1) per 2 mL injection in a vehicle containing 0.5% carboxymethylcellulose sodium and 0.05% polysorbate 80 in pH 7.4 phosphate buffered saline. […]
PK samples were collected at 0, 4, and 24 hours post dose, and at Weeks 4 and 12. All subjects in cohorts 1, 2, and 3 had levels below limits of quantitation (BQL<0.100 ng/mL) at all recorded time points.

Human MSCs = assay: Alcian Blue, Safranin O, and Type II collagen staining; format: cell-based; details: 14 or 21 days; compared to control
Description: Human MSCs were plated in 96-well plates in chondrogenic induction medium (Lonza; DMEM, dexamethasone, ascorbate, insulin-transferrin-selenium [ITS supplement], gentamycin-amphotericin [GA-1000], sodium pyruvate, proline and L-glutamine) and treated with the compound of Formula (I) in DMSO or TGFβ3 (20 μg/mL) as a positive control. Cells were incubated at 37° C., 5% CO2 for either 14 or 21 days, with media changes every 5 days. The cells were fixed using 4% formaldehyde (Electron Microscopy Sciences). For Alcian Blue staining, cells were incubated with 10 mg/mL Alcian Blue (Sigma-Aldrich) in 3% acetic acid (Sigma-Aldrich), pH 2.5 for 30 minutes, washed with PBS, and imaged using a light microscope (Life Technologies) at 10× magnification. For Safranin O staining, cells were incubated with 0.1% Safranin O (Sigma-Aldrich) in distilled water for 5 minutes, washed with PBS and imaged using a light microscope (Life Technologies) at 10× magnification. For Type II collagen staining, cells were incubated with primary antibody in 3% BSA, 0.3% Triton X-100 in PBS with overnight incubation at […]. Cells were then washed and incubated with fluorophore-linked secondary antibody and DAPI (Life Technologies) for 1 hr at room temperature. Cells were washed and imaged using EVOS FL Microscope (Life Technologies).

SMILES: CC(C)CC(=O)Nc1cncc(-c2ccc3[nH]nc(-c4nc5c(-c6cccc(F)c6)cncc5[nH]4)c3c2)c1 [compound of Formula (I)]
- Form after 3 days; dry ([1]; Acetone, 50° C.): Form 2*/Form 2*
- Form after 3 days; wet ([1]; Acetone, 50° C.): Form 2*/Form 2*
- Form after 5 days; dry ([1]; Acetone, 50° C.): Form 2*/Form 2*
- Form after 5 days; wet ([1]; Acetone, 50° C.): Form 2*/Form 2*
- Form after 3 days; dry ([1]; Acetone, RT): Form 2*/Form 2*
- Form after 3 days; wet ([1]; Acetone, RT): Form 2*/Form 2*
- Form after 5 days; dry ([1]; Acetone, RT): Form 2*/Form 2*
- Form after 5 days; wet ([1]; Acetone, RT): Form 2*/Form 2*
- Form after 3 days; dry ([1]; EA, 50° C.): Form 4/Form 4
- Form after 3 days; wet ([1]; EA, 50° C.): Form 4/Form 4
- Form after 5 days; dry ([1]; EA, 50° C.): Form 4*/Form 4*
- Form after 5 days; wet ([1]; EA, 50° C.): Form 4*/Form 4*
- Form after 3 days; dry ([1]; EA, RT): Form 4/Form 4
- Form after 3 days; wet ([1]; EA, RT): Form 4/Form 4
- Form after 5 days; dry ([1]; EA, RT): Form 4/Form 4
- Form after 5 days; wet ([1]; EA, RT): Form 4/Form 4
- Form after 3 days; dry ([1]; EtOH, 50° C.): Form 2*/Form 2*
- Form after 3 days; wet ([1]; EtOH, 50° C.): Form 2*/Form 2*
- Form after 5 days; dry ([1]; EtOH, 50° C.): Form 2*/Form 2*
- Form after 5 days; wet ([1]; EtOH, 50° C.): Form 2*/Form 2*
- Form after 3 days; dry ([1]; EtOH, RT): Form 2*/Form 2*
- Form after 3 days; wet ([1]; EtOH, RT): Form 2*/Form 2*
- Form after 5 days; dry ([1]; EtOH, RT): Form 2*/Form 2*
- Form after 5 days; wet ([1]; EtOH, RT): Form 2*/Form 2*
- Form after 3 days; dry ([1]; MeOH, 50° C.): Form 2*/Form 2*
- Form after 3 days; wet ([1]; MeOH, 50° C.): Form 2*/Form 2*
- Form after 5 days; dry ([1]; MeOH, 50° C.): Form 2*/Form 2*
- Form after 5 days; wet ([1]; MeOH, 50° C.): Form 2*/Form 2*
- Form after 3 days; dry ([1]; MeOH, RT): Form 2*/Form 2*
- Form after 3 days; wet ([1]; MeOH, RT): Form 2*/Form 2*
- Form after 5 days; dry ([1]; MeOH, RT): Form 2*/Form 2*
- Form after 5 days; wet ([1]; MeOH, RT): Form 2*/Form 2*
- Form after 3 days; dry ([1]; water, 50° C.): Form 13/Form 13
- Form after 3 days; wet ([1]; water, 50° C.): Form 13/Form 13
- Form after 5 days; dry ([1]; water, 50° C.): Form 13/Form 13
- Form after 5 days; wet ([1]; water, 50° C.): Form 13/Form 13
- Form after 3 days; dry ([1]; water, RT): Form 13/Form 13
- Form after 3 days; wet ([1]; water, RT): Form 13/Form 13
- Form after 5 days; dry ([1]; water, RT): Form l & Form 13
- Form after 5 days; wet ([1]; water, RT): Form 13
- plasma level (PK samples) [2]: < 0.100 ng/mL
- chondrogenesis (Alcian Blue, Safranin O, Type II collagen staining) (Human MSCs): increased amount of chondrogenesis
